From patent US9340493B2, “Hydroxamic acid derivatives useful as antibacterial agents” (Pfizer Inc., priority 2008, dated 2016)
Converted amounts (≈) assume the structure as drawn.

Key:
[1] = target: T1, Pseudomonas aeruginosa LpxC enzyme (Pseudomonas aeruginosa, UniProt P47205); experiment: IC50 assay, LpxC enzyme from P. aeruginosa; format: biochemical; details: 0.5 nM enzyme, 25° C., pH 8.0, 20 min; ** = average of 2-8 assays
T1 construct: made in house; host or cells: E. coli
T1 sequence (P47205 1-303): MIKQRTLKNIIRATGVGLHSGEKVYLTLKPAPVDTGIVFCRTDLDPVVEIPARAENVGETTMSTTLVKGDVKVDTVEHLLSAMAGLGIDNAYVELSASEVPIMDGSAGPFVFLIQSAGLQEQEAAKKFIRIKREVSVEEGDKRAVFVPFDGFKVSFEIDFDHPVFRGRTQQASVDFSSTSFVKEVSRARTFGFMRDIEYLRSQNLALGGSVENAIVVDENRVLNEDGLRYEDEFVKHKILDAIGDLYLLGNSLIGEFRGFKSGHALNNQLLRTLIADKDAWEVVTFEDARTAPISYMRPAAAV
Description: IC50 assay, LpxC enzyme from P. aeruginosa: IC50 determination in the LpxC enzyme assay was carried out in a similar manner to that described by S. A. Hyland et al., J. Bacteriology 1997, 179, 2029-2037. [See also T. Kline et al., J. Medicinal Chemistry 2002, 45, 3112-3129.] Briefly, Pseudomonas aeruginosa LpxC enzyme (0.5 nM) purified from E. coli-overexpressing bacteria was incubated at 25° C. in a final volume of 25 ul containing 0.5 uM UDP-3-O—(R-3-hydroxydecanoyl)-N—[^3H-acetyl]glucosamine (B. D. Maxwell and J. C. Bronstein, J. Labeled Compounds and Radiopharmaceuticals 2005, 48, 1049-1054), 1 mg/ml BSA, and 50 mM sodium phosphate buffer, pH 8.0 in the presence and absence of inhibitor compound. At the end of 20 min, 90 ul of a pre-mixed 3% suspension of activated charcoal in 100 mM sodium acetate, pH 7.5, was added to stop the enzyme reaction. The contents of the well were transferred to a filter plate and filtered, and an aliquot of the filtrate was quantitated by liquid scintillation spectrometry. A no-enzyme control was subtracted in order to eliminate background counts.

[2] = tested on: P. aeruginosa PAO280; experiment: MIC determination, P. aeruginosa PAO280; format: cell-based; details: Pseudomonas aeruginosa, PAO280, read-out: MIC (ug/mL) P. aeruginosa PAO280
Description: (§1) MIC determinations: The in vitro antibacterial activity of compounds described in the Examples was evaluated by minimum inhibitory concentration (MIC) testing according to Clinical and Laboratory Standards Institute (CLSI, formerly NCCLS) guidelines. See: Clinical and Laboratory Standards Institute. Methods for Dilution Antimicrobial Susceptibility Tests for Bacteria that Grow Aerobically; Approved Standard-Seventh Edition. CLSI document M7-A7 [ISBN 1-56238-587-9]. Clinical and Laboratory Standards Institute, 940 West Valley Road, Suite 1400, Wayne, Pa. 19087-1898 USA, 2006; also Clinical and Laboratory Standards Institute. Performance Standards for Antimicrobial Susceptibility Testing; Eighteenth Informational Supplement. CLSI document M100-S18 [ISBN1-56238-653-0]. Clinical and Laboratory Standards Institute.
(§2) The following bacterial strains were used:
Pseudomonas aeruginosa PA0280: lacks efflux pumps MexAB-oprM, MexXY and MexZ

[3] = tested on: P. aeruginosa UI-18; experiment: MIC determination, P. aeruginosa UI-18; format: cell-based; details: Pseudomonas aeruginosa, UI18; wild-type; * = arithmetic mean of 2-6 MIC determinations; read-out: MIC (ug/mL) P. aeruginosa UI-18
Description: as §1, §2
P. aeruginosa UI-18: Wild-type;

[4] = tested on: Acinetobacter baumanii/haemolyticus; experiment: MIC determination, A. baumanii/haemolyticus; format: cell-based; details: Acinetobacter baumannii; multidrug-resistant clinical isolate; * = arithmetic mean of 2-6 MIC determinations; read-out: MIC (ug/mL) A. baumanii/haemolyticus
Description: as §1, §2
Acinetobacter baumanii/haemolyticus: Multidrug-resistant clinical isolate;

[5] = tested on: Enterobacter aerogenes; experiment: MIC determination, E. aerogenes; format: cell-based; details: Klebsiella aerogenes; quinolone-resistant, ESBL-expressing clinical isolate; * = arithmetic mean of 2-6 MIC determinations; read-out: MIC (ug/mL) E. aerogenes
Description: as §1, §2
Enterobacter aerogenes: Quinolone-resistant isolate, expresses extended-spectrum beta-lactamases (ESBL), clinical isolate;

[6] = tested on: Escherichia coli EC-1; experiment: MIC determination, E. coli EC-1; format: cell-based; details: EC1, EC-1: VOGEL, * = arithmetic mean of 2-6 MIC determinations, read-out: MIC (ug/mL) E. coli EC-1
Description: as §1, §2
Escherichia coli EC-1: VOGEL;

[7] = tested on: Klebsiella pneumoniae; experiment: MIC determination, K. pneumoniae; format: cell-based; details: ciprofloxacin-resistant, ESBL-expressing clinical isolate, * = arithmetic mean of 2-6 MIC determinations, read-out: MIC (ug/mL) K. pneumoniae
Description: as §1, §2
Klebsiella pneumoniae: Ciprofloxacin-resistant isolate, expresses extended-spectrum beta-lactamases (ESBL), clinical isolate;

[8] = tested on: Staphylococcus aureus ATCC 29213; experiment: MIC determination, S. aureus ATCC 29213; format: cell-based; details: ATCC29213, CLSI quality control reference strain, * = arithmetic mean of 2-6 MIC determinations, read-out: MIC (ug/mL) S. aureus ATCC 29213
Description: as §1, §2
Staphylococcus aureus ATCC 29213: CLSI quality control reference strain; and […]

Row | Structure (SMILES) | IC50 [1] [µM] | MIC [2] [µg/mL] | MIC [3] [µg/mL] | MIC [4] [µg/mL] | MIC [5] [µg/mL] | MIC [6] [µg/mL] | MIC [7] [µg/mL] | MIC [8] [µg/mL]
1 | C[C@@](OCc1ccc(-c2ccccc2)cc1)(C(=O)NO)[C@@H](O)c1ccco1 [Example 13, (2S,3S)-2-(biphenyl-4-ylmethoxy)-3-(2-furyl)-N,3-dihydroxy-2-methylpropanamide] | 0.00163 | 0.5 (≈ 1.36 µM) | 32 (≈ 87.1 µM) | > 32 | > 32 | > 32 | > 32 | > 32
2 | C[C@@](OCc1ccc(-c2ccccc2)cc1)(C(=O)NO)[C@@H](O)c1ccc(CO)o1 [Example 14, (2S,3S)-2-(biphenyl-4-ylmethoxy)-N,3-dihydroxy-3-[5-(hydroxymethyl)-2-furyl]-2-methylpropanamide] | 0.000582 | 0.5 (≈ 1.26 µM) | 16 (≈ 40.3 µM) | > 64 | > 64 | > 64 | > 64 | > 64
3 | C[C@@](OCc1ccc(-c2ccccc2)cc1)(C(=O)NO)[C@@H](O)C1CC1 [Example 15, (2S,3S)-2-(biphenyl-4-ylmethoxy)-3-cyclopropyl-N,3-dihydroxy-2-methylpropanamide] | 0.0734 | 32 (≈ 93.7 µM) | > 64 | > 64 | > 64 | > 64 | > 64 | > 64
4 | C[C@@](OCc1ccc(-c2ccccc2)cc1)(C(=O)NO)[C@@H](O)c1ccno1 [Example 16, (2S,3R)-2-(biphenyl-4-ylmethoxy)-N,3-dihydroxy-3-isoxazol-5-yl-2-methylpropanamide] | 0.00079 | 0.125 (≈ 0.339 µM) | 8 (≈ 21.7 µM) | > 64 | > 64 | 64 (≈ 174 µM) | > 64 | > 64
5 | C[C@@](OCc1ccc(-c2ccccc2)cc1)(C(=O)NO)[C@@H](O)c1ccccn1 [Example 17, (2S,3S)-2-(biphenyl-4-ylmethoxy)-N,3-dihydroxy-2-methyl-3-pyridin-2-ylpropanamide] | 0.0015 | 0.25 (≈ 0.661 µM) | 8 (≈ 21.1 µM) | 32 (≈ 84.6 µM) | > 64 | 16 (≈ 42.3 µM) | > 64 | > 64
6 | Cn1nncc1[C@H](O)[C@](C)(OCc1ccc(-c2ccccc2)cc1)C(=O)NO [Example 19, (2S,3S)-2-(biphenyl-4-ylmethoxy)-N,3-dihydroxy-2-methyl-3-(1-methyl-1H-1,2,3-triazol-5-yl)propanamide] | 0.00256 | 2 (≈ 5.23 µM) | > 64 | > 64 | > 64 | > 64 | > 64 | > 64
7 | C[C@@](OCc1ccc(-c2ccccc2)cc1)(C(=O)NO)[C@@H](O)c1nccs1 [Example 20, (2S,3R)-2-(biphenyl-4-ylmethoxy)-N,3-dihydroxy-2-methyl-3-(1,3-thiazol-2-yl)propanamide] | 0.000726 | 1 (≈ 2.6 µM) | 16 (≈ 41.6 µM) | > 64 | > 64 | > 64 | > 64 | > 64
8 | C[C@@](OCc1ccc(-c2ccccc2)cc1)(C(=O)NO)[C@@H](O)c1cncs1 [Example 21, (2S,3R)-2-(biphenyl-4-ylmethoxy)-N,3-dihydroxy-2-methyl-3-(1,3-thiazol-5-yl)propanamide] | 0.00823 | 4 (≈ 10.4 µM) | > 64 | > 64 | > 64 | > 64 | > 64 | > 64
9 | C[C@@](OCc1ccc(-c2ccccc2)cc1)(C(=O)NO)[C@@H](O)c1ccoc1 [Example 22, (2S,3S)-2-(biphenyl-4-ylmethoxy)-3-(3-furyl)-N,3-dihydroxy-2-methylpropanamide] | 0.0105 | 4 (≈ 10.9 µM) | > 8 | > 8 | > 8 | > 8 | > 8 | > 8
10 | Cc1cc([C@H](O)[C@](C)(OCc2ccc(-c3ccccc3)cc2)C(=O)NO)no1 [Example 23, (2S,3S)-2-(biphenyl-4-ylmethoxy)-N,3-dihydroxy-2-methyl-3-(5-methylisoxazol-3-yl)propanamide] | 0.000376 | 0.015 (≈ 0.0392 µM) | 1.75 (≈ 4.58 µM) | 4 (≈ 10.5 µM) | 27 (≈ 70.6 µM) | 4 (≈ 10.5 µM) | 8 (≈ 20.9 µM) | > 64
11 | COCc1ccc([C@H](O)[C@](C)(OCc2ccc(-c3ccccc3)cc2)C(=O)NO)o1 [Example 24, (2S,3S)-2-(biphenyl-4-ylmethoxy)-N,3-dihydroxy-3-[5-(methoxymethyl)-2-furyl]-2-methylpropanamide] | 0.00128 | 2 (≈ 4.86 µM) | 32 (≈ 77.8 µM) | > 64 | > 64 | > 64 | > 64 | > 64
12 | C[C@@](OCc1ccc(-c2ccccc2)cc1)(C(=O)NO)[C@@H](O)c1cn2ccccc2n1 [Example 25, (2S,3S)-2-(biphenyl-4-ylmethoxy)-N,3-dihydroxy-3-imidazo[1,2-a]pyridin-2-yl-2-methylpropanamide] | 0.00138 | 0.03 (≈ 0.0719 µM) | 1.67 (≈ 4 µM) | 32 (≈ 76.7 µM) | 16 (≈ 38.3 µM) | 3 (≈ 7.19 µM) | 4 (≈ 9.58 µM) | > 64
13 | CCCc1ccc(-c2ccc(CO[C@](C)(C(=O)NO)[C@@H](O)c3cn4ccccc4n3)cc2)cc1 [Example 26, (2S,3S)-N,3-dihydroxy-3-imidazo[1,2-a]pyridin-2-yl-2-methyl-2-[(4′-propylbiphenyl-4-yl)methoxy]propanamide] | 0.00137 | 2 (≈ 4.35 µM) | 8 (≈ 17.4 µM) | 1 (≈ 2.18 µM) | 8 (≈ 17.4 µM) | 1 (≈ 2.18 µM) | 4 (≈ 8.7 µM) | 32 (≈ 69.6 µM)
14 | Cc1nc([C@H](O)[C@](C)(OCc2ccc(-c3ccccc3)cc2)C(=O)NO)c(C)o1 [Example 27, (2S,3S)-2-(biphenyl-4-ylmethoxy)-3-(2,5-dimethyl-1,3-oxazol-4-yl)-N,3-dihydroxy-2-methylpropanamide] | 0.0652 | 16 (≈ 40.4 µM) | > 64 | > 64 | > 64 | > 64 | > 64 | > 64
15 | C[C@@](OCc1ccc(-c2ccccc2)cc1)(C(=O)NO)[C@@H](O)c1cc(-c2ccccc2)on1 [Example 28, (2S,3S)-2-(biphenyl-4-ylmethoxy)-N,3-dihydroxy-2-methyl-3-(5-phenylisoxazol-3-yl)propanamide] | 0.00143 | 4 (≈ 9 µM) | 8 (≈ 18 µM) | 8 (≈ 18 µM) | > 16 | 8 (≈ 18 µM) | > 16 | 16 (≈ 36 µM)
